Measurements reported in patent US12268777B2, “Compositions and methods for treating eosinophilic disorders” (The Regents of the University of California, priority 2019, dated 2025).

Legend:
[1] = system: EoE-derived primary esophageal fibroblasts; experiment: Western immunoblot of pro-fibrotic protein expression in EoE-derived esophageal fibroblasts; assay type: cell-based, human
Description: Reagents, human esophageal tissues, and primary human esophageal fibroblast isolation TGF-β1 (5 ng/mL; R&D Systems, Minneapolis, MN), rosiglitazone (20 μM; Abcam, Boston, MA), pioglitazone (20 μM; Sigma-Aldrich, St. Louis, MO), budesonide (0.1 μM; St. Louis, MO), and IL-4 (10 ng/mL; R&D Systems, Minneapolis, MN) were used in cell culture experiments. […] Active EoE was defined as greater than or equal to 15 eosinophils per hpf. Human organ transplant donor esophagi served as normal controls and were provided by the National Disease Research Interchange and the Arkansas Regional Organ Recovery Agency Control. […]
Adherent cells were washed with ice-cold phosphate-buffered saline containing 1 mM sodium orthovanadate (Na3VO4) and lysed in ice-cold RIPA lysis buffer freshly prepared and supplemented with 1 mM Na3VO4, complete protease inhibitor cocktail, and 2 mM phenylmethylsulfonyl fluoride. […] Equivalent amounts of total proteins were loaded into each well and electrophoresed on NuPAGE 4-12% Bis-Tris gels (Life Technologies, Grand Island, NY), transferred to polyvinylidene difluoride membranes, blocked with 5% bovine serum albumin, incubated with primary antibodies overnight (1:1,000) at 4° C., detected using species-appropriate horseradish peroxidase-conjugated secondary antibodies, and quantified as previously described (Rawson et al., J. Allergy Clin. Immunol., 138:791-800, 2016).

[2] = system: normal esophageal fibroblasts; experiment: Western immunoblot of pro-fibrotic protein expression in normal esophageal fibroblasts; assay type: cell-based, human; details: 20 μM, N=3
Description: Cell culture and stimulation.
Western immunoblot analysis. Adherent cells were washed with ice-cold phosphate-buffered saline containing 1 mM sodium orthovanadate (Na3VO4) and lysed in ice-cold RIPA lysis buffer freshly prepared and supplemented with 1 mM Na3VO4, complete protease inhibitor cocktail, and 2 mM phenylmethylsulfonyl fluoride. Whole cell lysates were centrifuged at 14,000 g for 15 minutes at 4° C.

[3] = in vivo; cited from earlier work
[4] = system: EoE-derived primary esophageal fibroblasts; experiment: qPCR of pro-fibrotic gene expression in EoE-derived esophageal fibroblasts stimulated with TGF-β1; details: at the concentrations used, up to 20 μM
Description: Reagents, human esophageal tissues, and primary human esophageal fibroblast isolation TGF-β1 (5 ng/mL; R&D Systems, Minneapolis, MN), rosiglitazone (20 μM; Abcam, Boston, MA), pioglitazone (20 μM; Sigma-Aldrich, St. Louis, MO), budesonide (0.1 μM; St. Louis, MO), and IL-4 (10 ng/mL; R&D Systems, Minneapolis, MN) were used in cell culture experiments.
Cell culture and stimulation. Human esophageal fibroblast cells were matched as closely as possible for sex, race, and passage. At sub-confluence, cells were serum starved overnight and treated with a TZD, budesonide, a combination, or vehicle for 2-3 hours followed by incubation with TGF-β1 or vehicle.
Preparation of total RNA and cDNA and quantitative PCR. Total RNA from fibroblast cultures was extracted using RNA STAT-60 (Tel-Test, Inc., Friendswood, TX) protocol, and oligo(dT)-primed cDNA was synthesized as previously described using the Qiagen RT-PCR kit and manufacturer's instructions. Quantitative real-time PCR (qPCR) primers are listed in Table 3; qPCR was carried out as previously described using the appropriate gene-specific primers, and relative gene expression was calculated using the method, with glyceraldehyde 3-phosphate dehydrogenase (gapdh) as the housekeeping gene (Rawson et al., J. Allergy Clin. Immunol., 138:791-800, 2016).

[5] = system: nonalcoholic steatohepatitis (NASH); details: compared to placebo; cited from earlier work

| Structure (SMILES) | basal protein expression of α-sma ([1]; EoE fibroblasts, 20 μM) | TGF-β1-induced protein expression of collagen-1α1 [2] | TGF-β1-induced protein expression of α-sma [2] | cardiac effect [3] | toxicity (housekeeper gene expression, responses in normal fibroblasts) [4] | TGFβ1-induced protein expression of collagen-1α1 ([1]; EoE fibroblasts from 2 patients, budesonide 0.1 μM) | drug-related adverse events [5] | tolerability [5] |
| --- | --- | --- | --- | --- | --- | --- | --- | --- |
| CN(CCOc1ccc(CC2SC(=O)NC2=O)cc1)c1ccccn1 (stereo not drawn) [rosiglitazone] | did not inhibit | did not inhibit | did not inhibit | myocardial infarction risk was subsequently disproven | not due to toxicity |  |  |  |
| CCCC1O[C@@H]2C[C@H]3[C@@H]4CCC5=CC(=O)C=C[C@]5(C)[C@H]4[C@@H](O)C[C@]3(C)[C@]2(C(=O)CO)O1 (stereo partly drawn) [budesonide, 16,17-(butylidenebis(oxy))-11,21-dihydroxy-, (11-β,16-α)-pregna-1,4-diene-3,20-dione] |  |  |  |  |  | no effects |  |  |
| CCc1ccc(CCOc2ccc(CC3SC(=O)NC3=O)cc2)nc1 (stereo not drawn) [pioglitazone] |  |  |  | cardioprotective effect |  |  | no major drug-related adverse events | well tolerated |
